Measured values reported in patent publication US10219516B2, “Molecules having pesticidal utility, and intermediates, compositions, and processes, related thereto” (priority 2015, dated 2019).

How the values were obtained:
Assay type in all cases: in vivo
[1] = system: Cabbage Looper (Trichoplusia ni, TRIPNI); assay: Bioassay on Cabbage Looper (CL), 128-well diet tray assay; conditions: Trichoplusia ni; Species CL (Cabbage Looper); read-out: CL (Biological Results, rating)
How it was run: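 Using eight wells per molecule, artificial diet was dosed at 50 μg/cm^2 with compound in 90:10 acetone-water and dried before one to five second-instar larvae were added per well. Covered vented trays were kept at 25° C. with 14:10 light-dark for five to seven days, then per-well percent mortality was recorded and averaged.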

[2] = system: Yellow Fever Mosquito (Aedes aegypti, AEDSAE); assay: Bioassay on Yellow Fever Mosquito (YFM), 96-well plate larval assay; conditions: Species YFM (Yellow Fever Mosquito)
How it was run: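 Aedes aegypti larvae (about 1 day old) in liver-powder water were added to plates dispensed from DMSO master plates (4000 ppm stock) diluted with 90:10 water/acetone; six replicate plates per master. Lidded plates were held at room temperature for 3 days, then each well was scored for mortality.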

[3] = system: Beet Armyworm (Spodoptera exigua, LAPHEG); assay: Bioassay on Beet Armyworm (BAW), 128-well diet tray assay; conditions: Species BAW (Beet Armyworm), read-out: BAW (Biological Results, rating)
How it was run: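 Artificial diet surface-treated with 50 μg/cm^2 test molecule in 90:10 acetone-water, dried, then infested with one to five second instar larvae per well. Held covered and vented at 25° C., 14:10 light-dark for five to seven days; percent mortality recorded per well and averaged over eight wells.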

Row | SMILES | pest or weed control at 50 µg/cm2 [1] [%] | YFM (Biological Results, rating) [2] | pest or weed control at 50 µg/cm2 [3] [%]
1 | N#Cc1cc(F)ccc1NC(=O)c1cccc(NC(=O)[C@H]2[C@H](c3ccc(Cl)c(Cl)c3)C2(Cl)Cl)c1 (relative stereo) [F268, trans-N-(2-Cyano-4-fluorophenyl)-3-(2,2-dichloro-3-(3,4-dichlorophenyl)cyclopropane-1-carboxamido)benzamide] | 50 to 100 | A (80-100) | 50 to 100
2 | O=C(Nc1ccc(F)cc1)c1cc(NC(=O)[C@H]2[C@H](c3ccc(Br)c(Cl)c3)C2(Cl)Cl)ccc1Cl (relative stereo) [F270, 5-(trans-3-(4-Bromo-3-chlorophenyl)-2,2-dichlorocyclopropane-1-carboxamido)-2-chloro-N-(4-fluorophenyl)benzamide] | 50 to 100 | A (80-100) | 50 to 100
3 | N#Cc1cc(F)ccc1NC(=O)c1cccc(NC(=O)[C@H]2[C@H](c3cc(Cl)cc(Cl)c3)C2(Cl)Cl)c1 (relative stereo) [F271, trans-N-(2-Cyano-4-fluorophenyl)-3-(2,2-dichloro-3-(3,5-dichlorophenyl)cyclopropane-1-carboxamido)benzamide] | 50 to 100 | A (80-100) | 50 to 100
4 | Cc1cc(F)ccc1NC(=O)c1cccc(NC(=O)[C@H]2[C@H](c3cc(Cl)cc(Cl)c3)C2(Cl)Cl)c1 (relative stereo) [F272, trans-3-(2,2-Dichloro-3-(3,5-dichlorophenyl)cyclopropane-1-carboxamido)-N-(4-fluoro-2-methylphenyl)benzamide] | 50 to 100 | A (80-100) | 50 to 100
5 | CN(C(=O)c1cccc(NC(=O)[C@H]2[C@H](c3cc(Cl)cc(Cl)c3)C2(Cl)Cl)c1)c1ccc(F)cc1 (relative stereo) [F273, trans-3-(2,2-Dichloro-3-(3,5-dichlorophenyl)cyclopropane-1-carboxamido)-N-(4-fluorophenyl)-N-methylbenzamide] | 50 to 100 | A (80-100) | 50 to 100
6 | O=C(Nc1ccc(F)cc1Cl)c1cccc(NC(=O)[C@H]2[C@H](c3cc(Cl)cc(Cl)c3)C2(Cl)Cl)c1 (relative stereo) [F274, trans-N-(2-Chloro-4-fluorophenyl)-3-(2,2-dichloro-3-(3,5-dichlorophenyl)cyclopropane-1-carboxamido)benzamide] | 50 to 100 | A (80-100) | 50 to 100
7 | N#Cc1ccc(NC(=O)c2cc(NC(=O)[C@H]3[C@H](c4cc(Cl)cc(Cl)c4)C3(Cl)Cl)ccc2Cl)c(C#N)c1 (relative stereo) [F287, trans-2-Chloro-5-(2,2-dichloro-3-(3,5-dichlorophenyl)cyclopropane-1-carboxamido)-N-(2,4-dicyanophenyl)benzamide] | 50 to 100 | A (80-100) | 50 to 100
8 | COC(=O)CNc1ccc(NC(=O)c2cc(NC(=O)[C@H]3[C@H](c4cc(Cl)cc(Cl)c4)C3(Cl)Cl)ccc2Cl)c(C)c1 (relative stereo) [F288, trans-methyl (4-(2-chloro-5-(2,2-dichloro-3-(3,5-dichlorophenyl)cyclopropane-1-carboxamido)benzamido)-3-methylphenyl)glycinate] | 50 to 100 | A (80-100) | 50 to 100
9 | C=Cc1ccc([C@H]2[C@H](C(=O)Nc3ccc(Cl)c(C(=O)Nc4ccc(F)cc4)c3)C2(Cl)Cl)cc1Cl (relative stereo) [F289, 2-chloro-5-(trans-2,2-dichloro-3-(3-chloro-4-vinylphenyl)cyclopropane-1-carboxamido)-N-(4-fluorophenyl)benzamide] | 50 to 100 | A (80-100) | 50 to 100
10 | O=C(Nc1ccc([N+](=O)[O-])cn1)c1cc(NC(=O)[C@H]2[C@H](c3cc(Cl)cc(Cl)c3)C2(Cl)Cl)ccc1Cl (relative stereo) [F293, 2-Chloro-5-(trans-2,2-dichloro-3-(3,5-dichlorophenyl)cyclopropane-1-carboxamido)-N-(5-nitropyridin-2-yl)benzamide] | 50 to 100 | A (80-100) | 50 to 100
11 | O=C(Nc1ncccn1)c1cc(NC(=O)[C@H]2[C@H](c3cc(Cl)cc(Cl)c3)C2(Cl)Cl)ccc1Cl (relative stereo) [F294, trans-2-Chloro-5-(2,2-dichloro-3-(3,5-dichlorophenyl)cyclopropane-1-carboxamido)-N-(pyrimidin-2-yl)benzamide] | 50 to 100 | A (80-100) | 50 to 100
12 | O=C(Nc1cncnc1)c1cc(NC(=O)[C@H]2[C@H](c3cc(Cl)cc(Cl)c3)C2(Cl)Cl)ccc1Cl (relative stereo) [F295, trans-2-Chloro-5-(2,2-dichloro-3-(3,5-dichlorophenyl)cyclopropane-1-carboxamido)-N-(pyrimidin-5-yl)benzamide] | 50 to 100 | A (80-100) | 50 to 100
13 | O=C(Nc1ccncn1)c1cc(NC(=O)[C@H]2[C@H](c3cc(Cl)cc(Cl)c3)C2(Cl)Cl)ccc1Cl (relative stereo) [F296, trans-2-Chloro-5-(2,2-dichloro-3-(3,5-dichlorophenyl)cyclopropane-1-carboxamido)-N-(pyrimidin-4-yl)benzamide] | 50 to 100 | A (80-100) | 50 to 100
14 | Cc1cc(NC(=O)c2cc(NC(=O)[C@H]3[C@H](c4cc(Cl)cc(Cl)c4)C3(Cl)Cl)ccc2Cl)ncc1F (relative stereo) [F297, trans-2-Chloro-5-(2,2-dichloro-3-(3,5-dichlorophenyl)cyclopropane-1-carboxamido)-N-(5-fluoro-4-methylpyridin-2-yl)benzamide] | 50 to 100 | A (80-100) | 50 to 100
15 | N#Cc1c(F)cccc1NC(=O)c1cc(NC(=O)[C@H]2[C@H](c3cc(Cl)cc(Cl)c3)C2(Cl)Cl)ccc1Cl (relative stereo) [F298, 2-Chloro-N-(2-cyano-3-fluorophenyl)-5-(trans-2,2-dichloro-3-(3,5-dichlorophenyl)cyclopropane-1-carboxamido)benzamide] | 50 to 100 | A (80-100) | 50 to 100
16 | N#Cc1cccc(F)c1NC(=O)c1cc(NC(=O)[C@H]2[C@H](c3cc(Cl)cc(Cl)c3)C2(Cl)Cl)ccc1Cl (relative stereo) [F299, 2-Chloro-N-(2-cyano-6-fluorophenyl)-5-(trans-2,2-dichloro-3-(3,5-dichlorophenyl)cyclopropane-1-carboxamido)benzamide] | 50 to 100 | A (80-100) | 50 to 100
17 | Cc1cc(F)c(NC(=O)c2cc(NC(=O)[C@H]3[C@H](c4cc(Cl)cc(Cl)c4)C3(Cl)Cl)ccc2Cl)c(C#N)c1 (relative stereo) [F300, 2-Chloro-N-(2-cyano-6-fluoro-4-methylphenyl)-5-(trans-2,2-dichloro-3-(3,5-dichlorophenyl)cyclopropane-1-carboxamido)benzamide] | 50 to 100 | A (80-100) | 50 to 100
18 | N#Cc1cc(Cl)ccc1NC(=O)c1cc(NC(=O)[C@H]2[C@H](c3cc(Cl)cc(Cl)c3)C2(Cl)Cl)ccc1Cl (relative stereo) [F301, 2-Chloro-N-(4-chloro-2-cyanophenyl)-5-(trans-2,2-dichloro-3-(3,5-dichlorophenyl)cyclopropane-1-carboxamido)benzamide] | 50 to 100 | A (80-100) | 50 to 100
19 | N#Cc1c(Cl)cccc1NC(=O)c1cc(NC(=O)[C@H]2[C@H](c3cc(Cl)cc(Cl)c3)C2(Cl)Cl)ccc1Cl (relative stereo) [F302, 2-Chloro-N-(3-chloro-2-cyanophenyl)-5-(trans-2,2-dichloro-3-(3,5-dichlorophenyl)cyclopropane-1-carboxamido)benzamide] | 50 to 100 | A (80-100) | 50 to 100
20 | N#Cc1ccc(Br)cc1NC(=O)c1cc(NC(=O)[C@H]2[C@H](c3cc(Cl)cc(Cl)c3)C2(Cl)Cl)ccc1Cl (relative stereo) [F303, N-(5-Bromo-2-cyanophenyl)-2-chloro-5-(trans-2,2-dichloro-3-(3,5-dichlorophenyl)cyclopropane-1-carboxamido)benzamide] | 50 to 100 | A (80-100) | 50 to 100
21 | Cc1cccc(NC(=O)c2cc(NC(=O)[C@H]3[C@H](c4cc(Cl)cc(Cl)c4)C3(Cl)Cl)ccc2Cl)c1C#N (relative stereo) [F304, 2-Chloro-N-(2-cyano-3-methylphenyl)-5-(trans-2,2-dichloro-3-(3,5-dichlorophenyl)cyclopropane-1-carboxamido)benzamide] | 50 to 100 | A (80-100) | 50 to 100
